Activity calls are given as the source filed them.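 How the source made its calls: active means compounds giving half or more protection of infected cells from virus-caused growth loss, again on retest; inactive means the rest.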
System: CEM cells HIV-1 protection, formazan growth assay
Assay: NCI AIDS Antiviral Assay
Conditions: for IC50: measured here: growth of uninfected CEM cells
Procedure, shortened: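 Screen of anti-HIV-1 activity in human CEM cells using a formazan-based growth measurement at five drug concentrations. Hits with 50% or greater protection were repeated, and confirmation required reproducible complete protection.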

SMILES	outcome	EC50 [µM]	IC50 [µM]
Cc1nc2ccccc2c(=O)n1Cc1nc2ccccc2[nH]1	inactive		
C=C1C(=O)O[C@H]2C1[C@H](OC(=O)/C(C)=C\COC(C)=O)C[C@]1(CO1)[C@@H]1[C@H](O)[C@H]3O[C@@]3(C)[C@@H]12 (some centres not stated)	inactive		
O=[N+]([O-])c1nccn1CCCNCCCn1ccnc1[N+](=O)[O-]		> 200	> 200
CCOc1ccc(C2=NN(CC)C(=O)C(C3C(=O)N(c4ccccc4)N=C3C)C2)cc1 (configuration not stated)		> 120	> 120
COc1ccc2c(c1)[n+](=O)c(C(=O)CC(=O)C(=O)Nc1cccc(Cl)c1C)c(C)n2[O-]		> 100	46.8
N#Cc1c(-c2ccc([N+](=O)[O-])cc2)c(C#N)c(=O)n(NS(=O)(=O)c2ccccc2)c1-c1ccccc1		> 200	36.3
O=C1C2C3C=CC(C3)C2C2C3C=CC(C3)C12 (configuration not stated)		> 324	> 324
CCOC(CN(C)C(=S)Nc1cccc2ccccc12)OCC		> 200	158
CC12CC(=O)NC(=O)N1CCS2 (configuration not stated)		214	562
Cc1ccc(C2=NN(C)COC2C(F)(F)F)cc1 (configuration not stated)		> 28.2	> 28.2
C[Si](C)(C)C1=C([Si](C)(C)C)C(Cl)(Cl)C1=O		> 20	3.98
COc1cccc(NC(=O)C(=O)C2C=CCS2(=O)=O)c1 (configuration not stated)		> 63.1	> 63.1
CC(C)=CCCC1(C)C=Cc2c(cc(O)c3c(=O)c4cccc(O)c4oc23)O1 (configuration not stated)		> 200	33.9
CCOC(=O)C1(CO)CSCCSC1		> 1050	> 1050
CCC(=O)N1C(=O)C(C)C23c4cc(OC)c(OC)cc4C(=O)N2CCCN13 (configuration not stated)		> 240	> 240
CCOC(=O)/C(=C\c1cccc(F)c1)P(=O)(OCC)OCC		> 57.5	10.2
CC(C)C(O)C(=O)C(F)C(C)C (configuration not stated)		> 1410	> 1410
NNC(=O)N/N=C1\CNC(=O)C(=O)C1c1nc2ccccc2s1 (configuration not stated)	inactive		
CCOC(=O)N(NC(=O)NC(C)C)c1ccccc1		> 200	> 200
CC(C)c1cc2c3c(c1O)OC(=O)C[C@@]3(C)C1[C@@H](OC(=O)C1(C)C)C2=O (some centres not stated)		> 501	295
COC(=O)c1cc(C)ccc1/C=C1\Cc2c(C)cc(C)cc2C1=O	inactive		
CCOc1cc(C=Nc2ccc(Oc3ccc(Cl)cc3)c(Cl)c2)ccc1O		> 200	29.5
CC1=NN(c2ccccc2)C(=O)C1N=Nc1ccc(Br)c(C)c1 (configuration not stated)	inactive		

SMILES	outcome	EC50 [µM]	IC50 [µM]
O=C1C[C@@H]2OC3=C(C(=O)CCC3)[C@@H]2O1		> 1290	7.24
O=c1c2cc3c(cc2c2cccc4c2n1CCC4)OCO3	inactive		
C=C=C(C)C(=O)N(C(C)C)C(C)C		> 200	> 200
COc1cc2c(cc1OC)C(Cl)C(c1ccc(F)cc1)=C2Cl (configuration not stated)	inactive		
S=c1n(-c2ccc(Cl)cc2)c2nc3ccccc3nc(/c2=N\Nc2cc(Cl)ccc2Cl)n1-c1ccccn1		> 200	18.2
CC(C)CC1C(=O)OC(C)(C)OC1=O		> 200	> 200
NC(=N/N=C(/c1ccccc1)c1ccc(N)cc1)/C(N)=N\N=C(/c1ccccc1)c1ccc(N)cc1	inactive		
C(#C[PH+](c1ccccc1)c1ccccc1)c1ccccc1.C(#C[PH+](c1ccccc1)c1ccccc1)c1ccccc1.C(#C[PH+](c1ccccc1)c1ccccc1)c1ccccc1.[C-]#[O+].[C-]#[O+].[C-]#[O+].[W]		> 0.676	> 0.676
CC(=O)C(C(c1ccccc1)N1CCCc2ccccc21)N1CCOCC1 (configuration not stated)		> 200	61.7
CCC(=O)N(O)C(C)(C)C		> 1740	> 1740
CC1=C(C(=O)NCc2ccccc2)C(c2ccc(N(C)C)cc2)C(C(=O)NCc2ccccc2)=C(C)N1		> 72.4	> 72.4
O=Nc1c(S(=O)(=O)O)cc2cc(S(=O)(=O)O)ccc2c1O		> 200	> 200
CN(C)Cc1cc(C(=O)/C=C/c2ccc(/C=C/C(=O)c3cc(CN(C)C)c(O)c(CN(C)C)c3)cc2)cc(CN(C)C)c1O		> 200	10
CC(=O)c1ccc2c(c1)NC(=O)CC(C)N2 (configuration not stated)		> 200	> 200
N#Cc1c(-c2ccccc2)ssc1=S		> 200	14.1
C[N+]1(C2=C([O-])C(F)(F)C2=O)CCOCC1		> 200	> 200
c1ccc(COc2nc3ccc(C45CC6CC(CC(C6)C4)C5)cc3[nH]2)cc1		> 200	7.41
NC1=NN(c2ccccc2)C(=O)C1C(=O)C(=O)Nc1cccc(C(F)(F)F)c1 (configuration not stated)	inactive		
COCN1C(=O)CN=C(c2ccccc2)c2cc(NO)ccc21		16.2	21.9
CCOP(=O)(OCC)OC(C#N)c1ccc(-c2ccccc2)cc1 (configuration not stated)		> 89.1	45.7
Clc1ccc2nsnc2c1	inactive		
COC(=O)C1=C(C(=O)OC)C(N(C)C)C(C(=O)OC)=C(C(=O)OC)S1		> 200	> 200
CC(C)OP(=O)(OC(C)C)c1ncn(-c2ccc([N+](=O)[O-])cc2)n1		> 513	468
